According to US4221811A, “Antifungal and/or antibacterial organotin compounds, and use” (priority 1977, dated 1980):

What was measured:
Aspergillus niger = assay type: cell-based; settings: after three days, glucose-agar, pH~6.9-7.0
Text: (§1) Antifungal activity of organotin compounds. Minimal concentra-
(§2) tion (mg/l) causing complete inhibition of visible growth (MIC;
(§3) after three days). -Test medium: glucose-agar; pH~6.9-7.0.

Botrytis allii = assay type: cell-based; settings: after three days, glucose-agar, pH~6.9-7.0
Text: as §1, §2, §3

Cladosporium cucumerinum = assay type: cell-based; settings: after three days, glucose-agar, pH~6.9-7.0
Text: as §1, §2, §3

Penicillium italicum = assay type: cell-based; settings: after three days, glucose-agar, pH~6.9-7.0
Text: as §1, §2, §3

B. subtilis = assay type: cell-based; settings: B. subtilis (Gram-pos.); after three days; peptone-glucose agar; pH ~ 6.9-7.0
Text: (§4) Antibacterial activity of organotin compounds. Minimal concentration
(§5) causing complete inhibition of visible growth (MIC; after three days).
(§6) Test medium: peptone-glucose agar; pH ~ 6.9-7.0.

E. coli = assay type: cell-based; settings: E. coli (Gram-neg.); after three days; peptone-glucose agar; pH ~ 6.9-7.0
Text: as §4, §5, §6

P. fluorescens = assay type: cell-based; settings: P. fluorescens (Gram-neg.); after three days; peptone-glucose agar; pH ~ 6.9-7.0
Text: as §4, §5, §6

S. lactis = assay type: cell-based; settings: S. lactis (Gram-pos.); after three days; peptone-glucose agar; pH ~ 6.9-7.0
Text: as §4, §5, §6

fungi [1] = test: Antifungal activity; assay type: cell-based
Text: as §1, §2, §3

bacteria = test: Antibacterial activity; assay type: cell-based
Text: as §4, §5, §6

physchem = settings: water
fungi [2] = settings: literature citation (1); cited from earlier work

CCC[CH2][Sn]([CH2]CCC)([CH2]CCC)[CH2]CC(=O)OC [Bu3 Sn(CH2)2 COOMe, tributyl-(3-carbomethoxyethyl)tin]
Minimal concentration causing complete inhibition of visible growth (MIC) (Aspergillus niger): 5 mg/L | Minimal concentration causing complete inhibition of visible growth (MIC) (Botrytis allii): 0.5 mg/L | Minimal concentration causing complete inhibition of visible growth (MIC) (Cladosporium cucumerinum): 1 mg/L | Minimal concentration causing complete inhibition of visible growth (MIC) (Penicillium italicum): 1 mg/L | Minimal concentration causing complete inhibition of visible growth (MIC) (B. subtilis): 30 mg/L | Minimal concentration causing complete inhibition of visible growth (MIC) (E. coli): 100 mg/L | Minimal concentration causing complete inhibition of visible growth (MIC) (P. fluorescens): > 1000 mg/L | Minimal concentration causing complete inhibition of visible growth (MIC) (S. lactis): 30 mg/L | antifungal activity (in words) (fungi [1]): high antifungal and antibacterial activity | antibacterial activity (in words) (bacteria): high antifungal and antibacterial activity

CCC[CH2][Sn]([CH2]CCC)([CH2]CCC)[CH2]CCBr [Bu3 Sn(CH2)3 Br, (3-bromopropyl)tributyltin]
antifungal activity (in words) (fungi [1]): somewhat less effective, although they show a surprisingly effective antifungal activity

CCC[CH2][Sn]([CH2]CCC)([CH2]CCC)[CH2]CCN(C)C [Bu3 Sn(CH2)3 NMe2, (3-dimethylaminopropyl)tributyltin]
solubility (physchem): ~20 mg/mL

CCC[CH2][Sn]([CH2]CCC)([CH2]CCC)[CH2]CCCBr [Bu3 Sn(CH2)4 Br, (4-bromobutyl)tributyltin]
antifungal activity (in words) (fungi [1]): somewhat less effective, although they show a surprisingly effective antifungal activity

CCC[CH2][Sn]([Br])([CH2]CCC)[CH2]CCC [Bu3 SnBr]
antifungal activity, MIC values (fungi [2]): about 10 mg/l

CCC[CH2][Sn]([CH3])([CH2]CCC)[CH2]CCNCCCN(C)C.Cl.Cl [MeBu2 Sn(CH2)3 NH(CH2)3 NMe2 . 2]
Minimal concentration causing complete inhibition of visible growth (MIC) (Aspergillus niger): 100 mg/L | Minimal concentration causing complete inhibition of visible growth (MIC) (Botrytis allii): ≤ 10 mg/L | Minimal concentration causing complete inhibition of visible growth (MIC) (Cladosporium cucumerinum): 20 mg/L | Minimal concentration causing complete inhibition of visible growth (MIC) (Penicillium italicum): ≤ 10 mg/L | Minimal concentration causing complete inhibition of visible growth (MIC) (B. subtilis): 3 mg/L | Minimal concentration causing complete inhibition of visible growth (MIC) (E. coli): 3 mg/L | Minimal concentration causing complete inhibition of visible growth (MIC) (P. fluorescens): 3 mg/L | Minimal concentration causing complete inhibition of visible growth (MIC) (S. lactis): 3 mg/L | solubility in water: 50%

CCC[CH2][Sn]([CH3])([Br])[CH2]CCC [MeBu2 SnBr]
antifungal activity, MIC values (fungi [2]): about 10 mg/l

CCC[CH2][Sn]([CH3])([Br])[CH2]CC[N+](C)(C)C.[I-] (stereo not shown) [MeBuBrSn(CH2)3 NMe3 I, reference compound]
Minimal concentration causing complete inhibition of visible growth (MIC) (Aspergillus niger): > 500 mg/L | Minimal concentration causing complete inhibition of visible growth (MIC) (Botrytis allii): > 500 mg/L | Minimal concentration causing complete inhibition of visible growth (MIC) (Cladosporium cucumerinum): > 500 mg/L | Minimal concentration causing complete inhibition of visible growth (MIC) (Penicillium italicum): > 500 mg/L | antifungal activity, MIC (fungi [1]): > 500 mg/L

CCC[CH2][Sn]([CH3])([Br])[CH2]CC (stereo not shown) [MePrBuSnBr]
antifungal activity, MIC values (fungi [2]): about 10 mg/l

CC[CH2][Sn]([CH2]CC)([CH2]CC)[CH2]CCNCCCN(C)C.Cl.Cl [Pr3 Sn(CH2)3 NH(CH2)3 NMe2 . 2]
Minimal concentration causing complete inhibition of visible growth (MIC) (Aspergillus niger): 20 mg/L | Minimal concentration causing complete inhibition of visible growth (MIC) (Botrytis allii): ≤ 10 mg/L | Minimal concentration causing complete inhibition of visible growth (MIC) (Cladosporium cucumerinum): 20 mg/L | Minimal concentration causing complete inhibition of visible growth (MIC) (Penicillium italicum): 10 mg/L | Minimal concentration causing complete inhibition of visible growth (MIC) (B. subtilis): 10 mg/L | Minimal concentration causing complete inhibition of visible growth (MIC) (E. coli): 10 mg/L | Minimal concentration causing complete inhibition of visible growth (MIC) (P. fluorescens): 10 mg/L | Minimal concentration causing complete inhibition of visible growth (MIC) (S. lactis): 10 mg/L | solubility in water: 50%

CCC[CH2][Sn]([CH2]CCC)([CH2]CCC)[O][Sn]([CH2]CCC)([CH2]CCC)[CH2]CCC [bis(tributyltin)oxide, reference compound]
solubility in water: 0.003%

CCC[CH2][Sn]([CH2]CCC)([CH2]CCC)[CH2]Cc1ccncc1 [tributyl-[3-(4-pyridyl)ethyl]tin]
antifungal activity (in words) (fungi [1]): high antifungal activity

CC[CH2][Sn]([CH2]CC)([CH2]CC)[CH2]Cc1ccncc1 [tripropyl-[3-(4-pyridyl)ethyl]tin]
antifungal activity (in words) (fungi [1]): high antifungal as well as antibacterial activity | antibacterial activity (in words) (bacteria): high antifungal as well as antibacterial activity
